Measurements taken from patent US10271543B2, “Systems and methods for cryopreservation of cells” (Cook General Biotechnology LLC, priority 2006, dated 2019).

Assays:
human spermatozoa = test: Cytotoxicity of bound cholesterol on semen in culture (motility evaluations); type: cell-based; conditions: culture plates coated with 100 µl sterol solution; 1, 2, 4 and 8 hours of incubation
Method: In this experiment, liquefied semen samples were exposed to culture plates that had been coated with 100 µl of the sterol solution.

human red blood cells = conditions: 3.3M (30%) glycerol; over a 2-3 log range in cooling rates; cited from earlier work

SMILES	cytotoxic effect (motility evaluations) (human spermatozoa)	survival (human red blood cells)
CC(C)CCC[C@@H](C)[C@H]1CC[C@H]2[C@@H]3CC=C4C[C@@H](O)CC[C@]4(C)[C@H]3CC[C@]12C [bound cholesterol, cholesterol]	no significant cytotoxic effect	
OCC(O)CO [glycerol]		around 90%
